The text below walks through data of US20260021119A1, “TETRACYCLINE DERIVATIVES” (ICM (INSTITUT DU CERVEAU ET DE LA MOELLE ÉPINIÈRE), priority 2022, published 2026).

In experiment [1] the test system is formalin-induced pain behavior. Description: Formalin-induced nociceptive pain test. The note with it: for pain-related responses in the formalin test (overall): mice; for sex dependence of analgesic response: single injection, (C) 10 mg/kg, (Ia) 40 mg/kg, male vs female mice, phase 2. The format is in vivo, C57/BL6 mice. On the procedure:
The analgesic effects of the compound of formula (C) described in Example 6 (administered at doses of 5 mg/kg of animal, 10 mg/kg of animal and 20 mg/kg of animal) and the compound of formula (Ia) according to the present invention (administered at doses of 10 mg/kg of animal, 20 mg/kg of animal, and 40 mg/kg of animal) were tested using the formalin-induced nociceptive pain model (as disclosed in the publication Lopes DM, Cater HL, Thakur M et al. “A refinement to the formalin test in mice [version 2; peer review: 2 approved]” F1000Research 2019, 8:891).
To test the anti-pain effects of compounds (Ia) and (C) according to the present invention, a formalin pain test was performed, which consists in subcutaneously injecting 50 μl of a 5.0% formalin solution into the right hind paw of adult C57/BL6 mice (Taylor and Basbaum, J Pain, 2000) before scoring pain behavior. The intensity of pain was estimated by recording the cumulative time (sec) during which animals develop a licking/bitting behavior in response to formalin injection. This response is divided into a transient early (Phase I) phase followed by a more prolonged late (Phase II) phase. Pain scoring is performed by experimenters blinded to test treatments using a video recording of formalin-induced pain behavior.

Experiment [2] has as its system p-tau (phosphorylated tau protein at Ser202, Thr205 residues). Description: p-tau (AT8) expression in cultured cortical neurons under oxidative stress. The arrangement: key to Reduction of the % of p-tau+ somas: a favorable response, synonymous with a decrease in the number of p-tau+ cell bodies; ++: a favorable response, synonymous with a decrease in the number of p-tau+ cell bodies; +++=reference level; an unfavorable response is represented by a sign “−”, synonymous with an elevation of the number of p-tau+ cell bodies; overexpression of p-tau in cortical cell bodies: dose or concentration left out as unconfirmed. The class given is cell-based, mouse. How it is done: A culture model of cortical neurons from mouse embryonic brain was used, in which neuronal cells were subjected to a maturation step until day in vitro (div) 7, before being gradually exposed to phenol red formulated DMEM/Nutrient mixture F12 Ham supplemented with 20 μg/mL of insulin, and 2 μM of the NMDA receptor blocker MK-801 (DF12i).
Precisely, after 4 days of exposure to DF12i, between 10-15% of surviving neurons show a very strong AT8 immunosignal in their somas while only 1 to 1.5% of neuronal cell bodies are found immunopositive under conditions where oxidative stress is repressed by treatment with bovine apotransferrin (APO; 100 µg/mL, Sigma Aldrich), a glycoprotein with iron chelating properties. Likewise, overexpression of p-tau in cortical cell bodies is reduced by the two non-antibiotic tetracyclines compound of formula (C) ([…]) and compound of formula (Ib) ([…]): see the following Table: […]

Experiment [3] has as its target alpha-synuclein (Homo sapiens, UniProt P37840). Description: alpha-synuclein fibrils by transmission electron microscopy (TEM). The format is biochemical. The note with it: 20 μM compound; vs alpha-synuclein alone. How it is done:
By using transmission electron microscopy (TEM) we studied the alpha-synuclein aggregation in the presence of 20 μM of the compound of formula (Ia) in the same condition described above. For the samples mounting, 5 μL of a 7 μM alpha-synuclein solution were adsorbed onto a formvar carbon film coated copper grids (Electron Microscopy Sciences) and stained with uranyless.

Experiment [4] relates to E. coli ATCC 25922. Description: MIC, broth dilution (Example 3). The note with it: Escherichia coli, ATCC25922; 18 h at 37° C., MH broth. The format is cell-based. On the procedure:
(§1) Bacterial strains used in this study were: S. aureus (ATCC25923), E. coli (ATCC25922), E. faecalis (ATCC29212) and P. aeruginosa (PA01). Strains were maintained at −80° C. in 15% (v/v) glycerol for cryoprotection. Bacteria were routinely grown in Mueller-Hinton (MH) broth at 37° C.
(§2) The susceptibility of bacterial strains to antibiotics and compounds was determined in microplates using the standard broth dilution method in accordance with the recommendations of the Comité de 1′Antibiogramme de la Société Française de Microbiologie (CA-SFM). (Members of the SFM Antibiogram Committee, R. Int. J. Antimicrob. Agents 2003, 21, 364). Briefly, the Minimal Inhibitory Concentrations (MICs) were determined with an inoculum of 10^5 CFU in 200 μL of MH broth containing two-fold serial dilutions of each drug. […] To determine all MICs, the measurements were independently repeated in triplicate.
(§3) The compound of formula (Ia) according to the invention was tested against clinical isolates Gram-bacteria (P. aeruginosa, E. coli) and Gram+ bacteria (S. aureus, E. faecalis). Minimum inhibitory concentrations (MIC) were tentatively determined and compared to known antibiotic tetracyclines (doxycycline, demeclocycline, chlortetracycline) and to the compound of formula (B) disclosed in Example 1 of the present application. The test was reproduced twice and the average MIC were calculated.
(In general: Dilution methods test growth across graded concentrations, often in twofold steps.)

Experiment [5] has as its system E. faecalis ATCC 29212. In words: MIC, broth dilution (Example 3). The class given is cell-based. The note with it: Enterococcus faecalis, ATCC29212; 18 h at 37° C., MH broth. How it is done:
as §1, §2, §3

Experiment [6] relates to P. aeruginosa PA01. Description: MIC, broth dilution (Example 3). The class given is cell-based. The note with it: Pseudomonas aeruginosa, 18 h at 37° C., MH broth. How it is done:
as §1, §2, §3

In experiment [7] the test system is S. aureus ATCC 25923. Description: MIC, broth dilution (Example 3). The format is cell-based. How it is done: as §1, §2, §3

“Also recorded” adds a separate entry of the source.

As to `NC(=O)C1=C(O)CC2CC3C(=C(O)C2C1=O)C(=O)c1c(O)ccc(Cl)c1[C@H]3O` (stereo partly shown) [Compound of formula (C)], in experiment [1] (5 mg/kg, sub-chronic regimen (6 subcutaneous injections), male adult C57/BL6 mice, not different from morphine 10 mg/kg), the “reduction of nociceptive pain, phase 1 and 2” value is “highly effective”. Also, in experiment [1], the “pain-related responses in the formalin test (overall)” value is on record as “reduce pain-related responses; also recorded: showed anti-pain effects” and the “sex dependence of analgesic response” value is given as “male mice exhibited a better analgesic response”. For the same compound, the “anti-nociceptive effects, phases 1 and 2” value in experiment [1] (single injection 10 mg/kg prior to formalin, not different from morphine 10 mg/kg) is “robust anti-nociceptive effects”. For the same compound, the “overexpression of p-tau in cortical cell bodies” value in experiment [2] is “reduced”. Besides, the “Reduction of the % of p-tau+ somas” value in experiment [2] (compounds 3 μM, APO 100 μg/mL, mouse cortical cultures exposed div 7-11 to DF12i) is recorded as “+++”.

As to `C[C@H]1c2cccc(O)c2C(=O)C2=C(O)C3C(=O)C(C(N)=O)=C(O)C[C@@H]3[C@@H](O)[C@@H]21` (stereo partly drawn) [Compound of formula (Ia), (4aS,5R,5aR,6R)-3,5,10,12-tetrahydroxy-6-methyl-1,11-dioxo-1,4,4a,5,5a,6,11,12a-octahydrotetracene-2-carboxamide], the “amount of alpha-synuclein fibril (TEM)” value in experiment [3] is on record as “clearly decreases”. The MIC (commonly the smallest concentration in the dilution series that meets the test's criterion for growth inhibition) was more than 200 µM in experiment [4]; more than 200 µM in experiment [5]; more than 200 µM in experiment [6]; more than 200 µM in experiment [7] (Staphylococcus aureus, ATCC25923, 18 h at 37° C., MH broth). Moreover, the “activity on S. aureus compared with compound of formula (B)” value in experiment [7] is given as “less active”. Moreover, in experiment [1] (between 20 and 40 mg/kg, sub-chronic regimen, subcutaneous, male adult C57/BL6 mice), the “analgesic effects, phases 1 and 2” value is recorded as “exerted analgesic effects”. Moreover, the “pain-related responses in the formalin test (overall)” value in experiment [1] was “reduce pain-related responses; also recorded: showed anti-pain effects”. Further, in experiment [1] (single injection 40 mg/kg prior to formalin), the “anti-nociceptive effects, both phases” value is recorded as “exerted anti-nociceptive effects”. Moreover, the “sex dependence of analgesic response” value in experiment [1] was “females responded more effectively”.
